Laboratory results from US20110269811A1, “INHIBITORS OF SEMICARBAZIDE-SENSITIVE AMINE OXIDASE (SSAO) AND VAP-1 MEDIATED ADHESION USEFUL FOR TREATMENT AND PREVENTION OF DISEASES” (priority 2006, published 2011).

What was measured:
BZD (peripheral) = molecular target: T1, BZD (peripheral) (Rattus norvegicus, UniProt P16257); experiment: Receptor binding screen, [^3H]PK 11195; conditions: 10 uM Concentration of Compound I-1-Z; read-out: Mean Value, percent inhibition of control specific binding: BZD (peripheral)
T1 construct: rat heart; from tissue; host or cells: rat heart

CCKA (h) (CCK1) = molecular target: T2, CCKA (h) (CCK1) (Homo sapiens, UniProt P32238); experiment: Receptor binding screen, [^125I]CCK-8; conditions: 10 uM Concentration of Compound I-1-Z; read-out: Mean Value, percent inhibition of control specific binding: CCKA (h) (CCK1)
T2 construct: expressed in transfected cells; host or cells: CHO cells
T2 sequence (P32238 whole entry): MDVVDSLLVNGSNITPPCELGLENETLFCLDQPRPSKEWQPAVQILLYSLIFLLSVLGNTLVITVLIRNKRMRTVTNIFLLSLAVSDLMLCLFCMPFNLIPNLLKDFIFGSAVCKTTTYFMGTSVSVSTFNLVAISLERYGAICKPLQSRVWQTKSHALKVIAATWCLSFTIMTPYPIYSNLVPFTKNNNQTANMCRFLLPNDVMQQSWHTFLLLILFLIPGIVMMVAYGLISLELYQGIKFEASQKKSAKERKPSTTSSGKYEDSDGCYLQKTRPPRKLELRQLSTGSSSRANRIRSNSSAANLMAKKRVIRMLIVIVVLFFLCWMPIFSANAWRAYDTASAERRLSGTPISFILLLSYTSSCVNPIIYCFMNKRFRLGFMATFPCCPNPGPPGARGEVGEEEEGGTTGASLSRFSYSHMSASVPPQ

rat lung SSAO = molecular target: T3, rat lung SSAO (Rattus norvegicus, UniProt O08590); experiment: ED50 for rat lung SSAO after oral administration; assay type: in vivo, Sprague Dawley rats; conditions: lungs excised 1, 3, 6 or 24 h later, FIG. 11, read-out: ED50 for inhibition of rat lung SSAO activity
T3 construct: rat lung or human umbilical cord homogenates were prepared by chopping the freshly removed tissue; from tissue; host or cells: rat lung homogenate (1000 g supernatant)
T3 sequence (O08590 whole entry): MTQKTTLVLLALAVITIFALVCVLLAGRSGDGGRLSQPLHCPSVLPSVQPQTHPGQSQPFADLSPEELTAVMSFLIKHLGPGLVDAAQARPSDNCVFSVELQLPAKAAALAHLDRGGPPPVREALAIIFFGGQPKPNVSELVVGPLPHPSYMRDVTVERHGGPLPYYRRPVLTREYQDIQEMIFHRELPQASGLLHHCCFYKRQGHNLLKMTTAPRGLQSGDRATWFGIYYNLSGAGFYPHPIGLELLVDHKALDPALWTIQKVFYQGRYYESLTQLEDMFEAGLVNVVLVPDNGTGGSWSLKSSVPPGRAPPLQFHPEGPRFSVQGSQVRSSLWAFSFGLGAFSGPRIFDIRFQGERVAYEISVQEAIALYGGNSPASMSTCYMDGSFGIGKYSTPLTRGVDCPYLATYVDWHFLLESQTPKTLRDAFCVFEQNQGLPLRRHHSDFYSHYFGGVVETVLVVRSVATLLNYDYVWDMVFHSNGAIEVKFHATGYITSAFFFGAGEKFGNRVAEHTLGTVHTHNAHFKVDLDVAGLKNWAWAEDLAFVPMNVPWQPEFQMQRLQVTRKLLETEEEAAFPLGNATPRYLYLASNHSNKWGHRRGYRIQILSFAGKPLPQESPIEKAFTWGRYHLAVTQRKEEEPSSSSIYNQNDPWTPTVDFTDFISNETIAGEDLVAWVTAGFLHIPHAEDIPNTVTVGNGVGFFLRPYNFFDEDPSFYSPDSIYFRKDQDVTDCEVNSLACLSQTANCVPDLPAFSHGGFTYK
Protocol: Groups of five Sprague Dawley rats were orally administered the indicated doses of compound I-1-Z. At 1, 3, 6 or 24 h later, the animals were sacrificed, lungs excised and SSAO activity in lung homogenates determined. Results are presented as percent inhibition of SSAO activity relative to animals that were administered PBS.

A1 (h) = molecular target: T4, A1 (h) (Homo sapiens, UniProt P30542); experiment: Receptor binding screen, [^3H]DPCPX; conditions: 10 uM Concentration of Compound I-1-Z; read-out: Mean Value, percent inhibition of control specific binding: A1 (h)
T4 construct: expressed in transfected cells; host or cells: CHO cells
T4 sequence (P30542 whole entry): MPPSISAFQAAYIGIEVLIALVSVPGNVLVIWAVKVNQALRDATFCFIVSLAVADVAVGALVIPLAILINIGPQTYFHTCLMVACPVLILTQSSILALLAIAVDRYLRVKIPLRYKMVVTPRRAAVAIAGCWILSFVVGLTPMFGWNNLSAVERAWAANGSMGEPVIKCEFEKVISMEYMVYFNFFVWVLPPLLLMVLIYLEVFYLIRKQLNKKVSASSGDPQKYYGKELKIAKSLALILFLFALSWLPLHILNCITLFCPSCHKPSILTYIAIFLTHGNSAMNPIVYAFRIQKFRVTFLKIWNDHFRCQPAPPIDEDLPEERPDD

ORL1 (h) (NOP) = molecular target: T5, ORL1 (h) (NOP) (Homo sapiens, UniProt P41146); experiment: Receptor binding screen, [^3H]nociceptin; conditions: 10 uM Concentration of Compound I-1-Z; read-out: Mean Value, percent inhibition of control specific binding: ORL1 (h) (NOP)
T5 construct: expressed in transfected cells; host or cells: HEK-293 cells
Protocol: (§1) For Table 4 below, the specific ligand binding to the receptors is defined as the difference between the total binding and the nonspecific binding determined in the presence of an excess of unlabelled ligand. The results are expressed as a percent inhibition of control specific binding obtained in the presence of Compound I-1-Z. The IC50 values (concentration causing a half-maximal inhibition of control specific binding) and Hill coefficients (nH) were determined by non-linear regression analysis of the competition curves using Hill equation curve fitting. The inhibition constants (Ki) were calculated from the Cheng Prusoff equation (Ki=IC50/(1+(L/KD)), where L=concentration of radioligand in the assay, and KD=affinity of the radioligand for the receptor). In each experiment, the respective reference compound was tested concurrently with Compound I-1-Z in order to assess the assay suitability.

CGRP (h) = molecular target: T6, CGRP (h) (Homo sapiens, UniProt O60894+Q16602); experiment: Receptor binding screen, [^125I]hCGRPα; conditions: 10 uM Concentration of Compound I-1-Z; read-out: Mean Value, percent inhibition of control specific binding: CGRP (h)
T6 construct: expressed in transfected cells; host or cells: CHO cells
T6 sequence (Q16602 23-461): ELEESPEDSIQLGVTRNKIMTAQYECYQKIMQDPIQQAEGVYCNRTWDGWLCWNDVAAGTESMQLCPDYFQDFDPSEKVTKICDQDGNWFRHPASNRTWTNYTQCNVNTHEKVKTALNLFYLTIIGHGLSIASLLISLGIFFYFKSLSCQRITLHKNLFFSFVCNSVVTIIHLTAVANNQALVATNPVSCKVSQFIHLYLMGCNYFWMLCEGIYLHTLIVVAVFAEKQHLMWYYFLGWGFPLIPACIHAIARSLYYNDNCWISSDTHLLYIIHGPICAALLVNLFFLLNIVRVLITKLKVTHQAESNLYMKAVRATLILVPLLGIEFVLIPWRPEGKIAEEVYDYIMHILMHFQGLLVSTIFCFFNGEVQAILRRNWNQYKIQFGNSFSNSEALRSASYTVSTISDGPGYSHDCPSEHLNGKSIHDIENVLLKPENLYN
T6 sequence (O60894 27-148): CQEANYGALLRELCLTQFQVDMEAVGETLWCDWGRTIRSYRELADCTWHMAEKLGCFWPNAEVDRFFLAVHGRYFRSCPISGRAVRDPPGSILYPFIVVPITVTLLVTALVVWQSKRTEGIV

D1 (h) = molecular target: T7, D1 (h) (Homo sapiens, UniProt P21728); experiment: Receptor binding screen, [^3H]SCH 23390; conditions: 10 uM Concentration of Compound I-1-Z; read-out: Mean Value, percent inhibition of control specific binding: D1 (h)
T7 construct: expressed in transfected cells; host or cells: CHO cells

5-HT7 (h) = molecular target: T8, 5-HT7 (h) (Homo sapiens, UniProt P34969); experiment: Receptor binding screen, [^3H]LSD; conditions: 10 uM Concentration of Compound I-1-Z; read-out: Mean Value, percent inhibition of control specific binding: 5-HT7 (h)
T8 construct: expressed in transfected cells; host or cells: CHO cells

V1a (h) = molecular target: T9, V1a (h) (Homo sapiens, UniProt P37288); experiment: Receptor binding screen, [^3H]AVP; conditions: 10 uM Concentration of Compound I-1-Z; read-out: Mean Value, percent inhibition of control specific binding: V1a (h)
T9 construct: expressed in transfected cells; host or cells: CHO cells
T9 sequence (P37288 whole entry): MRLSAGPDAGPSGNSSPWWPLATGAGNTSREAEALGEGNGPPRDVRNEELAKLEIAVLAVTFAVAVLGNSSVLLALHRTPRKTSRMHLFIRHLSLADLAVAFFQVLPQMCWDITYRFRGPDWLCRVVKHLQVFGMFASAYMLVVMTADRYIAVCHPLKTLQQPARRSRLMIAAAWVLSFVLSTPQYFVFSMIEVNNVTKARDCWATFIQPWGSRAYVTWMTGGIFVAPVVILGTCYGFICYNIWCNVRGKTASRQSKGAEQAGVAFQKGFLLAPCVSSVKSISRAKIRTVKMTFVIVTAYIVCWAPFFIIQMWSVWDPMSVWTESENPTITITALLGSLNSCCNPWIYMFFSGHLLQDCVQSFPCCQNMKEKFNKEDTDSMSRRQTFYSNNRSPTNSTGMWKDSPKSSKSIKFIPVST

[1] = molecular target: T10, μ (h) (MOP) (agonist site) (Homo sapiens, UniProt P35372); experiment: Receptor binding screen, [^3H]DAMGO; conditions: 10 uM Concentration of Compound I-1-Z; read-out: Mean Value, percent inhibition of control specific binding: μ (h) (MOP) (agonist site)
T10 construct: expressed in transfected cells; host or cells: HEK-293 cells
T10 sequence (P35372 whole entry): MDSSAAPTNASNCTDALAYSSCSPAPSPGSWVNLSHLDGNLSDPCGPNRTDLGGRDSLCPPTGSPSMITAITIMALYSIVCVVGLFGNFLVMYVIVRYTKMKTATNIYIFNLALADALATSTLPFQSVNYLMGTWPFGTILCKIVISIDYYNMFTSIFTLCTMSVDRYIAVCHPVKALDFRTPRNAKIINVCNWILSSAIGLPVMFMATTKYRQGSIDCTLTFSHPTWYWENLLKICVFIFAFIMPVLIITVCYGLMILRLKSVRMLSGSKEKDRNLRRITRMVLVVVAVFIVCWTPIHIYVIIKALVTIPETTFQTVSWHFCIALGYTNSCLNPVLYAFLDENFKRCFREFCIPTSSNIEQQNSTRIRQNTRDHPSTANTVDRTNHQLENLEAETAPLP
Protocol: as §1

SK^+Ca channel = experiment: Receptor binding screen, [^125I]apamin; set-up: species or system rat; conditions: 10 uM Concentration of Compound I-1-Z
Protocol: as §1

M5 (h) = molecular target: T11, M5 (h) (Homo sapiens, UniProt P08912); experiment: Receptor binding screen, [^3H]4-DAMP; conditions: 10 uM Concentration of Compound I-1-Z; read-out: Mean Value, percent inhibition of control specific binding: M5 (h)
T11 construct: expressed in transfected cells; host or cells: CHO cells
T11 sequence (P08912 whole entry): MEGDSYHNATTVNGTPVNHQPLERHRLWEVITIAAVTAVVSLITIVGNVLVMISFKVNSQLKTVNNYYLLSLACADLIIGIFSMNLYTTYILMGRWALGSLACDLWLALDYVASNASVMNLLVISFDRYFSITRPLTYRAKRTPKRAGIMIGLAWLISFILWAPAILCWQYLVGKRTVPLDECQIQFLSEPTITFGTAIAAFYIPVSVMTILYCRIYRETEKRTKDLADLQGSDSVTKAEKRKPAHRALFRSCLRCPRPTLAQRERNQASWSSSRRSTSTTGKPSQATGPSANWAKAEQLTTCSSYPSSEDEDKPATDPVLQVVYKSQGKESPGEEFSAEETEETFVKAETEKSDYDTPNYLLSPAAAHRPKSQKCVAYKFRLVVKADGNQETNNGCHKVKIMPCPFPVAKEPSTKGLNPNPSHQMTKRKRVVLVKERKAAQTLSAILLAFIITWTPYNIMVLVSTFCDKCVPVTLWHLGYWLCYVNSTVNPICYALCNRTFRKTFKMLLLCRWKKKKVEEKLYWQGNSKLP

M4 (h) = molecular target: T12, M4 (h) (Homo sapiens, UniProt P08173); experiment: Receptor binding screen, [^3H]4-DAMP; conditions: 10 uM Concentration of Compound I-1-Z; read-out: Mean Value, percent inhibition of control specific binding: M4 (h)
T12 construct: expressed in transfected cells; host or cells: CHO cells
T12 sequence (P08173 whole entry): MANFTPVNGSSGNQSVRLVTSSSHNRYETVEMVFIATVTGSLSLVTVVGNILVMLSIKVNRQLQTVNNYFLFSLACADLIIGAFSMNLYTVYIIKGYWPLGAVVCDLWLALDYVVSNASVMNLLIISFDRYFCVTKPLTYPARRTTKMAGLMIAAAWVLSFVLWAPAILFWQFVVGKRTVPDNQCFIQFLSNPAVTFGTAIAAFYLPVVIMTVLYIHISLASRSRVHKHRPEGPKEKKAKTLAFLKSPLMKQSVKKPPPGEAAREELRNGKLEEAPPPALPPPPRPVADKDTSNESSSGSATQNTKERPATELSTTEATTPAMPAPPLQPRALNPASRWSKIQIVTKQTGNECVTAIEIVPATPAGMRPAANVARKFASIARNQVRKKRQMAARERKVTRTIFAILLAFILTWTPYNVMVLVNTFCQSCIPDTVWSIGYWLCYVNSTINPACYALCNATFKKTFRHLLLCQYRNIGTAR

GAL2 (h) = molecular target: T13, GAL2 (h) (Homo sapiens, UniProt O43603); experiment: Receptor binding screen, [^125I]galanin; conditions: 10 uM Concentration of Compound I-1-Z; read-out: Mean Value, percent inhibition of control specific binding: GAL2 (h)
T13 construct: expressed in transfected cells; host or cells: CHO cells
T13 sequence (O43603 whole entry): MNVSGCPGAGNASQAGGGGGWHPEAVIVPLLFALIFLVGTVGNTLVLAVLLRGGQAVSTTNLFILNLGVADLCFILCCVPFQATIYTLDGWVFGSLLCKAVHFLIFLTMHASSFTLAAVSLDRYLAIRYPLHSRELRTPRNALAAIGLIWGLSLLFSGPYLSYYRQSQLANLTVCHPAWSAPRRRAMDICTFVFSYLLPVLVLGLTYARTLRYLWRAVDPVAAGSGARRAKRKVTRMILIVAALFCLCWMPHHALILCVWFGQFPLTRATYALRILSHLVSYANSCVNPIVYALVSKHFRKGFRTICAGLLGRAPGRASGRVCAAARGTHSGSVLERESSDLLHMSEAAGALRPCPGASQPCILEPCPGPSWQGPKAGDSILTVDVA

[2] = molecular target: T14, human diamine oxidase (DAO) (Homo sapiens, UniProt P19801); experiment: Inhibition of diamine oxidase, AMPLEX Red assay, putrescine substrate; assay type: biochemical; conditions: recombinant DAO expressed in CHO cells
T14 construct: made in house; host or cells: CHO cells (Flp-In, pcDNA5/FRT); serum-free conditioned medium used directly
Protocol: Compounds of the invention can be tested for their inhibitory activity against diamine oxidase (DAO). Recombinant DAO was expressed in CHO cells using standard molecular biology methods as described herein. […] The serum containing media was removed and the cells were switched to CHO SFM serum free media for 48 hours. […] The media was collected and used directly as a source of diamine oxidase for enzyme analysis.

PCP = experiment: Receptor binding screen, [^3H]TCP; set-up: species or system rat; conditions: 10 uM Concentration of Compound I-1-Z
M1 (h) = molecular target: T15, M1 (h) (Homo sapiens, UniProt P11229); experiment: Receptor binding screen, [^3H]pirenzepine; conditions: 10 uM Concentration of Compound I-1-Z; read-out: Mean Value, percent inhibition of control specific binding: M1 (h)
T15 construct: expressed in transfected cells; host or cells: CHO cells
Protocol: as §1

GABA (non-selective) = experiment: Receptor binding screen, [^3H]GABA; set-up: species or system rat; conditions: 10 uM Concentration of Compound I-1-Z
Protocol: as §1

α1 (non-selective) = experiment: Receptor binding screen, [^3H]prazosin; set-up: species or system rat; conditions: 10 uM Concentration of Compound I-1-Z
Protocol: as §1

P2X = experiment: Receptor binding screen, [^3H]α,β-MeATP, rat urinary bladder; conditions: 10 uM Concentration of Compound I-1-Z
NE transporter (h) = molecular target: T16, NE transporter (h) (Homo sapiens, UniProt P23975); experiment: Receptor binding screen, [^3H]nisoxetine; conditions: 10 uM Concentration of Compound I-1-Z; read-out: Mean Value, percent inhibition of control specific binding: NE transporter (h)
T16 construct: expressed in transfected cells; host or cells: CHO cells
T16 sequence (P23975 whole entry): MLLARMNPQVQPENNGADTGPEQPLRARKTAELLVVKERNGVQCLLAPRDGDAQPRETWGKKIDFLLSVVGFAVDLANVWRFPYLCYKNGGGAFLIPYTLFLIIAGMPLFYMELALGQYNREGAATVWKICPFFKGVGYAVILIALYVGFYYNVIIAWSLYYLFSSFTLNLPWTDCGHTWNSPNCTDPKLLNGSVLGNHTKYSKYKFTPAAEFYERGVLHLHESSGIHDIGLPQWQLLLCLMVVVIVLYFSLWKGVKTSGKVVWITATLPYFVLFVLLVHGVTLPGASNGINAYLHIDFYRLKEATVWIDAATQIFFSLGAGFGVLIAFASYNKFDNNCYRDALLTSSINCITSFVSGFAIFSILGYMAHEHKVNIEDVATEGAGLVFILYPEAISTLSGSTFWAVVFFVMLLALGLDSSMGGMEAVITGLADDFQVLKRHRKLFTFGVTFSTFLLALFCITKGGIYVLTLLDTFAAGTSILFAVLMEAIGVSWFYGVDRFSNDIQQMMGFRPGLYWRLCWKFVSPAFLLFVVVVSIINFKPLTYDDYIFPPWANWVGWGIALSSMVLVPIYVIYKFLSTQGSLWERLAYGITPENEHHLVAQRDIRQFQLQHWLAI

α2 (non-selective) = experiment: Receptor binding screen, [^3H]RX 821002; set-up: species or system rat; conditions: 10 uM Concentration of Compound I-1-Z
Protocol: as §1

## COc1ccc(C/C(=C/F)CN)cc1.Cl [Compound I-1-Z, (Z)-3-Fluoro-2-(4-methoxybenzyl)-allylamine hydrochloride]
BZD (peripheral)
  inhibition at 10 µM: -6%
CCKA (h) (CCK1)
  inhibition at 10 µM: -13%
Rat lung SSAO
  ED50: 0.1 to 1 mg/kg
A1 (h)
  inhibition at 10 µM: -3%
ORL1 (h) (NOP)
  inhibition at 10 µM: -9%
CGRP (h)
  inhibition at 10 µM: -7%
D1 (h)
  inhibition at 10 µM: -2%
5-HT7 (h)
  inhibition at 10 µM: 13%
V1a (h)
  inhibition at 10 µM: 9%
[1]
  inhibition at 10 µM: 14%
SK^+Ca channel
  Mean Value, percent inhibition of control specific binding: SK^+Ca channel: 4%
M5 (h)
  inhibition at 10 µM: 27%
M4 (h)
  inhibition at 10 µM: 22%
GAL2 (h)
  inhibition at 10 µM: 12%
[2]
  IC50: 92 µM
PCP
  Mean Value, percent inhibition of control specific binding: PCP: −12%
M1 (h)
  inhibition at 10 µM: 28%
GABA (non-selective)
  Mean Value, percent inhibition of control specific binding: GABA (non-selective): −19%
α1 (non-selective)
  Mean Value, percent inhibition of control specific binding: α1 (non-selective): 8%
P2X
  Mean Value, percent inhibition of control specific binding: P2X: −2%
NE transporter (h)
  inhibition at 10 µM: 68%
α2 (non-selective)
  Mean Value, percent inhibition of control specific binding: α2 (non-selective): 23%
